Experimental data as given in patent publication US10072262B2, “RIG-I ligands and methods for producing them” (RHEINISCHE FRIEDRICH-WILHELMS-UNIVERSITÄT BONN, priority 2012, dated 2018).

Molecular target: T1, RIG-I (Homo sapiens, UniProt O95786)
T1 construct: endogenous in cells
T1 sequence (O95786 1-925): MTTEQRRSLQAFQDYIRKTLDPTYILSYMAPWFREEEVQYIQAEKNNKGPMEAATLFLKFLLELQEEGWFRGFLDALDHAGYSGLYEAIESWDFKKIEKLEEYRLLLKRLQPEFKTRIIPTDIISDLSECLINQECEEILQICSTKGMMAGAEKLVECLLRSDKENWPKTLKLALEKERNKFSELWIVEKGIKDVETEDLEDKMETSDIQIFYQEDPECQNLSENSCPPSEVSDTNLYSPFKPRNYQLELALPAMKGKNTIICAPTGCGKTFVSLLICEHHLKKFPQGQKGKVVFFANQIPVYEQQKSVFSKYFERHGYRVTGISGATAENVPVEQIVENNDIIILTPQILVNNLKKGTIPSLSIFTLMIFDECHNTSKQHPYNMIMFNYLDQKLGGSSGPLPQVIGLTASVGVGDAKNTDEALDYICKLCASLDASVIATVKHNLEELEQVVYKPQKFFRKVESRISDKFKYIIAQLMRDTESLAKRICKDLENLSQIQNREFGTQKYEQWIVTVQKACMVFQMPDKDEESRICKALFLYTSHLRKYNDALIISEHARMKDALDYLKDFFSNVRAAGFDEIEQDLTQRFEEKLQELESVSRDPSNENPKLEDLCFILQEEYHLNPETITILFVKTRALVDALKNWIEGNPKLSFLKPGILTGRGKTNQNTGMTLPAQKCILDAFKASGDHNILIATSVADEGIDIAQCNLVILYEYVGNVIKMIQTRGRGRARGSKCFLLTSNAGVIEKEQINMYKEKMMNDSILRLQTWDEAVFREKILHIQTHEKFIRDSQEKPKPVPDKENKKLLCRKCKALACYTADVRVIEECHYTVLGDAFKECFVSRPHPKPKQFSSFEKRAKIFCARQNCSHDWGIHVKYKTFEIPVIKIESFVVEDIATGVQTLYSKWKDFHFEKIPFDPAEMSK
Experiment: RIG-I stimulation: chloroquine-blocked PBMCs, duplex lipofection, IFNa ELISA at 20 h
Assay type: cell-based
Conditions: FIG. 7B titration
Description: A screen of 2′-O-methylations resolved positions to introduce RIG-I selectivity (FIG. 5). For the sense (A) and antisense (B) strand of OH-GFP2 a full 2′-O-methylation screen was performed. Each position was modified individually by 2′-O-methylation and used for stimulation of RIG-I, TLR7 or TLR8. For stimulation of RIG-I, peripheral blood mononuclear cells (PBMCs) were blocked with Chloroquine and stimulated by lipofection of the duplex. IFNa was measured 20 h post stimulation by ELISA. For TLR7 and TLR8 only the relevant single-strand was screened for stimulatory capacity and checked on unblocked PBMCs. The single-strands were transfected by complexation with poly-L-Arginine and 20 h post transfection for TLR7 activation IFNa, for TLR8 activation IL12p70 was measured by ELISA. […]
FIG. 6: (A) Methylations inert for RIG-I activation were combined in the antisense strand and the resulting duplex was used for stimulation of chloroquine-blocked PBMCs at a concentration of 0.8 μg/ml. IFNa was measured by ELISA at 20 h post stimulation. […]
FIG. 7: (A) PBMCs were blocked with Chloroquine and stimulated with duplexes at a concentration of 0.8 μg/ml. 20 h post stimulation IFNa was measured by ELISA. […] 20 h post stimulation IFNa was determined in the supernatant by ELISA. […]

| Substance | IFNa corresponding to 100% (50 nM, chloroquine-blocked PBMCs, Lipofectamine, 20 h, 4 donors) [pg/mL] | duplex immune activity (effect of 5′-PTO modification), in words (compared with s15/as3) |
| --- | --- | --- |
| 3P-GFP2: ppp-GACGCUGACCCUGAAGUUCAUCUU / CUGCGACUGGGACUUCAAGUAGAA; unmodified triphosphate duplex (5'-triphosphate, chemistry not fully specified; one strand is listed 3' to 5') | 16044 |  |
| s15 PTO/as3 PTO: G*A*C GCUGACCCUGAAmGUUCAUC U U / C U GmCGACUGGGACUU CAAGUAG*A*A; * = PTO, Nm = 2′-OCH3 (sense GACGCUGACCCUGAAGUUCAUCUU; antisense CUGCGACUGGGACUUCAAGUAGAA; phosphorothioate and 2'-O-methyl modifications, chemistry not fully specified; one strand is listed 3' to 5') |  | maximum increase in activity |
